# Assay results published in ChEMBL document CHEMBL5724914, “Linking interpersonal differences in gut microbiota composition and drug biotransformation activity” (2024).
# Experiments:
# [1] = (§1) The drug is tested on WLS-170 corresponding to human gut metagenome with ENA study accession number: PRJEB37062 and ENA sample accession number: ERS12561762 for biotransformation under anaerobic condition. The drug concentrations were measured over 9 timepoints collected between 0 and 24 hours of incubation by liquid-chromatography-coupled mass spectrometry (LC–MS); conditions: 2 µM
# [2] = human gut metagenome, 24 h, 2 µM
# [3] = human gut metagenome, 24 h, 2 µM; remark: listed apart in the source
# [4] = as §1, with “WLS-069” for “WLS-170”, “ERS12561748” for “ERS12561762”; conditions: 2 µM
# [5] = as §1, with “WLS-038” for “WLS-170”, “ERS12561745” for “ERS12561762”; conditions: 2 µM
# [6] = as §1, with “Z-023” for “WLS-170”, “to” for “to human gut”, “ERS12561822” for “ERS12561762”; conditions: 2 µM
# [7] = as §1, with “WLS-052” for “WLS-170”, “ERS12561747” for “ERS12561762”; conditions: 2 µM
# [8] = human gut metagenome, 24 h, 2 µM; remark: listed apart in the source
# [9] = as §1, with “Z-027” for “WLS-170”, “to” for “to human gut”, “ERS12561826” for “ERS12561762”; conditions: 2 µM
# [10] = human gut metagenome, 24 h, 2 µM; remark: listed apart in the source
# [11] = as §1, with “Z-022” for “WLS-170”, “mouse” for “human”, “ERS12561821” for “ERS12561762”; conditions: 2 µM
# [12] = as §1, with “Z-001” for “WLS-170”, “mouse” for “human”, “ERS12561801” for “ERS12561762”; conditions: 2 µM
# [13] = as §1, with “Z-028” for “WLS-170”, “mouse” for “human”, “ERS12561827” for “ERS12561762”; conditions: 2 µM
# [14] = as §1, with “Z-010” for “WLS-170”, “to” for “to human gut”, “ERS12561810” for “ERS12561762”; conditions: 2 µM
# [15] = human gut metagenome, 24 h, 2 µM; remark: listed apart in the source
# [16] = as §1, with “Z-029” for “WLS-170”, “rat” for “human”, “ERS12561828” for “ERS12561762”; conditions: 2 µM
# [17] = human gut metagenome, 24 h, 2 µM; remark: listed apart in the source
# [18] = human gut metagenome, 24 h, 2 µM; remark: listed apart in the source
# [19] = human gut metagenome, 24 h, 2 µM; remark: listed apart in the source
# [20] = human gut metagenome, 24 h, 2 µM; remark: listed apart in the source
# Further: call rule not given here.
Structure (SMILES),Bacterial Biotransformation [1],Bacterial Biotransformation [2],Bacterial Biotransformation [3],Bacterial Biotransformation [4],Bacterial Biotransformation [5],Bacterial Biotransformation [6],Bacterial Biotransformation [7],Bacterial Biotransformation [8],Bacterial Biotransformation [9],Bacterial Biotransformation [10],Bacterial Biotransformation [11],Bacterial Biotransformation [12],Bacterial Biotransformation [13],Bacterial Biotransformation [14],Bacterial Biotransformation [15],Bacterial Biotransformation [16],Bacterial Biotransformation [17],Bacterial Biotransformation [18],Bacterial Biotransformation [19],Bacterial Biotransformation [20]
CN(C)CCC=C1c2ccccc2COc2ccccc21 [DOXEPIN],Compound metabolized,Compound NOT metabolized,Compound metabolized,Compound metabolized,Compound NOT metabolized,Compound metabolized,Compound NOT metabolized,Compound NOT metabolized,Compound NOT metabolized,Compound metabolized,Compound NOT metabolized,Compound NOT metabolized,Compound NOT metabolized,Compound NOT metabolized,Compound metabolized,Compound NOT metabolized,Compound metabolized,Compound NOT metabolized,Compound metabolized,Compound NOT metabolized
C[C@]12CCC(=O)C=C1[C@@H]1C[C@@H]1[C@H]1[C@@H]3[C@@H]4C[C@@H]4[C@@]4(CCC(=O)O4)[C@@]3(C)CC[C@@H]12 [DROSPIRENONE],Compound metabolized,Compound NOT metabolized,Compound metabolized,Compound metabolized,Compound metabolized,Compound metabolized,Compound metabolized,Compound metabolized,Compound NOT metabolized,Compound NOT metabolized,Compound NOT metabolized,Compound NOT metabolized,Compound NOT metabolized,Compound metabolized,Compound metabolized,Compound NOT metabolized,Compound metabolized,Compound metabolized,Compound metabolized,Compound NOT metabolized
CC(C)c1c(CN(C)C(C)Cc2ccccc2)n(C)n(-c2ccccc2)c1=O (stereo not given) [FAMPROFAZONE],Compound metabolized,Compound metabolized,Compound metabolized,Compound metabolized,Compound metabolized,Compound metabolized,Compound metabolized,Compound metabolized,Compound metabolized,Compound metabolized,Compound metabolized,Compound metabolized,Compound NOT metabolized,Compound metabolized,Compound metabolized,Compound NOT metabolized,Compound metabolized,Compound metabolized,Compound metabolized,Compound metabolized
N=C(N)NC(=O)Cc1c(Cl)cccc1Cl [GUANFACINE],Compound NOT metabolized,Compound NOT metabolized,Compound NOT metabolized,Compound NOT metabolized,Compound NOT metabolized,Compound NOT metabolized,Compound NOT metabolized,Compound NOT metabolized,Compound NOT metabolized,Compound NOT metabolized,Compound NOT metabolized,Compound NOT metabolized,Compound NOT metabolized,Compound NOT metabolized,Compound NOT metabolized,Compound NOT metabolized,Compound NOT metabolized,Compound NOT metabolized,Compound NOT metabolized,Compound NOT metabolized
Nc1nc(N)nc(-c2cc(Cl)ccc2Cl)n1.O=C(O)/C=C\C(=O)O [IRSOGLADINE MALEATE],Compound NOT metabolized,Compound NOT metabolized,Compound NOT metabolized,Compound NOT metabolized,Compound NOT metabolized,Compound NOT metabolized,Compound NOT metabolized,Compound NOT metabolized,Compound NOT metabolized,Compound NOT metabolized,Compound NOT metabolized,Compound NOT metabolized,Compound NOT metabolized,Compound NOT metabolized,Compound metabolized,Compound NOT metabolized,Compound NOT metabolized,Compound NOT metabolized,Compound NOT metabolized,Compound NOT metabolized
CN1CCC(=C2c3ccccc3CC(=O)c3sccc32)CC1.O=C(O)/C=C/C(=O)O [KETOTIFEN FUMARATE],Compound metabolized,Compound NOT metabolized,Compound NOT metabolized,Compound NOT metabolized,Compound NOT metabolized,Compound NOT metabolized,Compound NOT metabolized,Compound metabolized,Compound NOT metabolized,Compound metabolized,Compound NOT metabolized,Compound NOT metabolized,Compound NOT metabolized,Compound NOT metabolized,Compound metabolized,Compound NOT metabolized,Compound metabolized,Compound NOT metabolized,Compound NOT metabolized,Compound NOT metabolized
CC[C@H](C)C(=O)O[C@H]1CCC=C2C=C[C@H](C)[C@H](CC[C@@H]3C[C@@H](O)CC(=O)O3)[C@H]21 [MEVASTATIN],Compound metabolized,Compound NOT metabolized,Compound NOT metabolized,Compound metabolized,Compound metabolized,Compound metabolized,Compound metabolized,Compound metabolized,Compound NOT metabolized,Compound NOT metabolized,Compound metabolized,Compound NOT metabolized,Compound metabolized,Compound NOT metabolized,Compound metabolized,Compound NOT metabolized,Compound NOT metabolized,Compound metabolized,Compound metabolized,Compound NOT metabolized
COc1ccc2cc([C@H](C)C(=O)O)ccc2c1 [NAPROXEN],Compound metabolized,Compound NOT metabolized,Compound metabolized,Compound metabolized,Compound NOT metabolized,Compound NOT metabolized,Compound metabolized,Compound metabolized,Compound NOT metabolized,Compound metabolized,Compound NOT metabolized,Compound NOT metabolized,Compound NOT metabolized,Compound NOT metabolized,Compound metabolized,Compound NOT metabolized,Compound metabolized,Compound NOT metabolized,Compound NOT metabolized,Compound NOT metabolized
